Assay results reported in the supplement of paper PMC8253809.

Columns and labels:
SUDIPGXXI [1] = diffuse intrinsic pontine glioma line; test: maximal growth inhibition (yFin) relative to DMSO / staurosporine; higher = more efficacious
Outline: (§1)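 Compounds were delivered by pin tool as a 10-point threefold dilution series with a mean top concentration of 35 μM, in triplicate, to patient-derived pHGG/DIPG cell lines and astrocyte controls growing on 1% Geltrex-coated 384-well plates. Incubation lasted 7 days, or 3 days for iAstro, at 37 °C with 5% CO2. EC50 and maximal response (yFin) come from the three- or four-parameter log-logistic fit with the lowest AICc, applied to pooled, log2-transformed CellTiter-Glo luminescence normalised per plate to % activity between solvent (negative) and positive control wells.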

SUDIPGXIX [2] = diffuse intrinsic pontine glioma line; test: as above
Outline: as §1

iAstro [3] = astrocyte control; test: as above
Outline: as §1

SUDIPGIV [4] = diffuse intrinsic pontine glioma line; test: area under dose-response curve of % growth inhibition (log2 RLU vs DMSO / staurosporine), 1e-11 to 1e-4 M (% x log10 M); higher = more growth inhibition
Outline: (§2)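 Area under the curve was derived with the trapezoid rule from a fitted log-logistic curve, switching to a smoothing spline if the sigmoid fit failed. It rested on per-plate % activity between solvent and positive controls, calculated from log2-transformed CellTiter-Glo luminescence after 7 days of exposure (3 days for iAstro) at 37 °C, 5% CO2. Patient-derived pHGG/DIPG lines and astrocytes on 1% Geltrex-coated 384-well plates received a 10-point threefold dilution series, mean top concentration 35 μM, in triplicate.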

SUDIPGVI = diffuse intrinsic pontine glioma line; test: as above
Outline: as §2

DIPGX7 = H3.3 K27M diffuse intrinsic pontine glioma line; test: as above
Outline: as §2

HGGX2 [5] = paediatric high-grade glioma line; test: as above
Outline: as §2

DIPGX29 [6] = H3.3 K27M diffuse intrinsic pontine glioma line; test: as above
Outline: as §2

HGGX39 [7] = paediatric high-grade glioma line; test: as above
Outline: as §2

DIPGX9 [8] = diffuse intrinsic pontine glioma line; test: as above
Outline: as §2

SUDIPGXIII = diffuse intrinsic pontine glioma line; test: as above
Outline: as §2

DIPGX37 = H3.3 K27M diffuse intrinsic pontine glioma line; test: as above
Outline: as §2

SUDIPGXXI [9] = test: as above
Outline: as §2

HGGX42 = H3.3 G34R paediatric high-grade glioma line; test: as above
Outline: as §2

SUDIPGXVII = diffuse intrinsic pontine glioma line; test: as above
Outline: as §2

HABS = astrocyte control; test: as above
Outline: as §2

SUDIPGXIX [10] = test: as above
Outline: as §2

HGGX6 = H3.3 G34R paediatric high-grade glioma line; test: as above
Outline: as §2

iAstro [11] = test: as above
Outline: as §2

SUDIPGXXI [12] = test: EC50 (inflection of fitted growth-inhibition curve) (log10 M)
Outline: as §1

SUDIPGXIX [13] = test: as above
Outline: as §1

iAstro [14] = test: as above
Outline: as §1

SUDIPGIV [15] = test: maximal growth inhibition (yFin) relative to DMSO / staurosporine; higher = more efficacious
Outline: as §1

HGGX39 [16] = test: as above
Outline: as §1

SUDIPGIV [17] = test: EC50 (inflection of fitted growth-inhibition curve) (log10 M)
Outline: as §1

HGGX39 [18] = test: as above
Outline: as §1

DIPGX29 [19] = test: maximal growth inhibition (yFin) relative to DMSO / staurosporine; higher = more efficacious
Outline: as §1

DIPGX29 [20] = test: EC50 (inflection of fitted growth-inhibition curve) (log10 M)
Outline: as §1

HGGX2 [21] = test: maximal growth inhibition (yFin) relative to DMSO / staurosporine; higher = more efficacious
Outline: as §1

HGGX2 [22] = test: EC50 (inflection of fitted growth-inhibition curve) (log10 M)
Outline: as §1

DIPGX9 [23] = test: maximal growth inhibition (yFin) relative to DMSO / staurosporine; higher = more efficacious
Outline: as §1

DIPGX9 [24] = test: EC50 (inflection of fitted growth-inhibition curve) (log10 M)
Outline: as §1

| SMILES | maximal growth inhibition (SUDIPGXXI [1]) [%] | maximal growth inhibition (SUDIPGXIX [2]) [%] | maximal growth inhibition (iAstro [3]) [%] | area under dose-response curve (SUDIPGIV [4]) | area under dose-response curve (SUDIPGVI) | area under dose-response curve (DIPGX7) | area under dose-response curve (HGGX2 [5]) | area under dose-response curve (DIPGX29 [6]) | area under dose-response curve (HGGX39 [7]) | area under dose-response curve (DIPGX9 [8]) | area under dose-response curve (SUDIPGXIII) | area under dose-response curve (DIPGX37) | area under dose-response curve (SUDIPGXXI [9]) | area under dose-response curve (HGGX42) | area under dose-response curve (SUDIPGXVII) | area under dose-response curve (HABS) | area under dose-response curve (SUDIPGXIX [10]) | area under dose-response curve (HGGX6) | area under dose-response curve (iAstro [11]) | EC50 (log10 M) (SUDIPGXXI [12]) | EC50 (log10 M) (SUDIPGXIX [13]) | EC50 (log10 M) (iAstro [14]) | maximal growth inhibition (SUDIPGIV [15]) [%] | maximal growth inhibition (HGGX39 [16]) [%] | EC50 (log10 M) (SUDIPGIV [17]) | EC50 (log10 M) (HGGX39 [18]) | maximal growth inhibition (DIPGX29 [19]) [%] | EC50 (log10 M) (DIPGX29 [20]) | maximal growth inhibition (HGGX2 [21]) [%] | EC50 (log10 M) (HGGX2 [22]) | maximal growth inhibition (DIPGX9 [23]) [%] | EC50 (log10 M) (DIPGX9 [24]) |
| --- | --- | --- | --- | --- | --- | --- | --- | --- | --- | --- | --- | --- | --- | --- | --- | --- | --- | --- | --- | --- | --- | --- | --- | --- | --- | --- | --- | --- | --- | --- | --- | --- |
| COc1ccc(Cn2ccc3ccc(C(=O)NO)cc32)cc1 | 117 | 31.4 | 47.6 | 6.64 | 2.84 | 20.3 | 14.8 | 24.9 | 10.3 | 19.1 | 30.1 | 30.6 | 91.2 | 25.8 | 7.72 | 11.9 | 24.5 | 5.76 | 47 | -4.78 | -4.78 | -4.67 | – | – | – | – | – | – | – | – | – | – |
| N=C(N)c1ccc(N=NNc2ccc(C(=N)N)cc2)cc1 [BERENIL] | 46.9 | – | – | 43.8 | 15.1 | 20.8 | 0 | 41.8 | 84.7 | 5.74 | 14.9 | 90.7 | 53.1 | 0 | 13.8 | 0.995 | 0 | 52.7 | 1.3 | -5.13 | – | – | 38.7 | 68.7 | -5.18 | -5.18 | – | – | – | – | – | – |
| CO[C@H]1C(=O)[C@]2(C)[C@@H](OC)C[C@H]3OC[C@@]3(OC(C)=O)[C@H]2[C@H](OC(=O)c2ccccc2)[C@]2(O)C[C@H](OC(=O)[C@H](O)[C@@H](NC(=O)OC(C)(C)C)c3ccccc3)C(C)=C1C2(C)C [CABAZITAXEL] | – | – | – | 255 | 37.8 | 68.4 | 156 | 71.3 | 123 | 141 | 29.9 | 119 | 515 | 102 | 50.5 | 147 | 120 | 78.2 | 79.4 | – | – | – | – | – | – | – | – | – | – | – | – | – |
| CC(C)[C@H]1C(=O)N[C@@H](CCCNC(=N)N)C(=O)NCC(=O)N[C@@H](CC(=O)O)C(=O)N[C@H](Cc2ccccc2)C(=O)N1C [CILENGITIDE] | – | – | – | 4.77 | 0 | 15.6 | 8.33 | 10.1 | 4.22 | 8.99 | 0 | 4.08 | 1.67 | 11.4 | 4.38 | 3.86 | 0 | 2.93 | 0 | – | – | – | – | – | – | – | – | – | – | – | – | – |
| CC(C)(C)c1nc(-c2cccc(NS(=O)(=O)c3c(F)cccc3F)c2F)c(-c2ccnc(N)n2)s1 [DABRAFENIB] | – | – | – | 18.7 | 2.65 | 20.8 | 0 | 3.8 | 25.7 | 3.09 | 0.214 | 11.5 | 13.7 | 7.39 | 3.63 | 19.7 | 0 | 21.9 | 3.65 | – | – | – | – | – | – | – | – | – | – | – | – | – |
| CCN(c1cc(-c2ccc(CN3CCOCC3)cc2)cc(C(=O)NCc2c(C)cc(C)[nH]c2=O)c1C)C1CCOCC1 [EPZ-6438] | – | – | – | 9.17 | 0 | 5.15 | 0 | 4.38 | 1.99 | 0 | 2.24 | 0 | 6.79 | 0 | 4.66 | 12.9 | 0.349 | 0 | 5.32 | – | – | – | – | – | – | – | – | – | – | – | – | – |
| CC12CC3CC(C)(C1)CC(N)(C3)C2 [MEMANTINE] | 32.5 | – | – | 6.14 | 0 | 13.8 | 2.91 | 3.62 | 0.964 | 1.54 | 0 | 1.76 | 21.5 | 0.942 | 1.91 | 2.39 | 1.83 | 2.25 | 0.365 | -4.68 | – | – | – | – | – | – | – | – | – | – | – | – |
| N[C@H]1C[C@@H]1c1ccc(-c2cccc(O)c2)cc1 [OG-L002] | – | 87.2 | – | 174 | 3.43 | 138 | 81.6 | 67.6 | 78.2 | 24.4 | 0 | 78.6 | 7.31 | 100 | 103 | 7.06 | 222 | 51.3 | 35.4 | – | -6.55 | – | – | – | – | – | – | – | – | – | – | – |
| O=C([C@@H](Cc1cccc(C(F)(F)F)c1)NS(=O)(=O)c1cc(F)c2c(c1)CCNC2)N1CCCC1 [PFI-2] | 24.8 | – | – | 4.77 | 8.26 | 4.47 | 6.57 | 14 | 4.9 | 0 | 1.68 | 0.851 | 14.4 | 0 | 3.09 | 5.29 | 0 | 5.68 | 6.82 | -4.58 | – | – | – | – | – | – | 27.5 | -4.51 | – | – | – | – |
| CCOC(=O)c1ccc(C#Cc2ccc3c(c2)C(C)(C)CCS3)nc1 [TAZAROTENE] | 107 | – | 21.6 | 45.5 | 0 | 5.61 | 12.3 | 10.3 | 27.7 | 25.9 | 14.7 | 19.5 | 230 | 11.6 | 12.6 | 0 | 0 | 15.5 | 17 | -5.98 | – | -4.78 | – | – | – | – | – | – | – | – | – | – |
| CC1=C(/C=C/C(C)=C/C=C/C(C)=C/C(=O)O)C(C)(C)CCC1 [TRETINON] | 94.3 | – | – | 44.1 | 22 | 16.1 | 71.1 | 40.4 | 42.5 | 97.5 | 0 | 46.7 | 296 | 28.5 | 19.9 | 0 | 14.9 | 27.5 | 14.6 | -7.13 | – | – | – | – | – | – | – | – | 24.3 | -6.92 | – | – |
| O=C(CCCCCCC(=O)Nc1ccc([C@H]2O[C@@H](CSc3nc(-c4ccccc4)c(-c4ccccc4)o3)C[C@@H](c3ccc(CO)cc3)O2)cc1)NO [TUBACIN] | 51.8 | – | 29.5 | 0.838 | 1.17 | 22.1 | 3.24 | 8.41 | 4.96 | 5.5 | 0 | 3.94 | 43.2 | 0 | 1.78 | 4.17 | 8.78 | 0 | 17 | -4.84 | – | -4.6 | – | – | – | – | – | – | – | – | – | – |
| CN1CCc2c(c3ccccc3n2Cc2ccc(C(=O)NO)cc2)C1 [TUBASTATIN A] | 99.5 | – | 54 | 24.1 | 0 | 5.69 | 21.2 | 16.3 | 24.6 | 32.9 | 6.63 | 24.4 | 82.4 | 9.08 | 17.2 | 14.5 | 24.1 | 6.92 | 37.8 | -4.83 | – | -4.7 | 30.1 | – | -4.8 | – | – | – | – | – | 29.3 | -4.76 |
| C[C@]1(c2nc3c(C(N)=O)cccc3[nH]2)CCCN1 [VELIPARIB] | 99.9 | – | – | 6.66 | 0 | 1.28 | 1.41 | 0 | 0 | 6.96 | 0 | 0 | 100 | 0 | 9.93 | 3.94 | 7.71 | 0 | 7.64 | -4.72 | – | – | – | – | – | – | – | – | – | – | – | – |
| CS(=O)(=O)c1ccc(C(=O)Nc2ccc(Cl)c(-c3ccccn3)c2)c(Cl)c1 [VISMODEGIB] | 34.8 | – | – | 6.55 | 0 | 5.14 | 1.06 | 6.39 | 11.1 | 2.06 | 2.44 | 7.51 | 28.8 | 0.511 | 7.7 | 0 | 0 | 11.3 | 25.8 | -4.83 | – | – | – | – | – | – | – | – | – | – | – | – |
| O=c1ncccn1[C@@H]1O[C@H](CO)[C@@H](O)[C@H]1O [ZEBULARINE] | – | – | – | 12 | 13.2 | 17.7 | 20 | 5.5 | 2.92 | 11.6 | 32.2 | 19.9 | 15.3 | 15.7 | 7.86 | 4.92 | 5.55 | 2.58 | 6.4 | – | – | – | – | – | – | – | – | – | – | – | – | – |
